Converted amounts (≈) assume the structure as drawn.
Columns and labels:
Assay in all cases: ≥ marks a high value that may be exact or a test limit, other limits are often not marked, values filed in µg/mL are converted to µM
[1] = system: Citrobacter koseri MTCC 1657
[2] = system: Staphylococcus aureus MTCC 3160
[3] = system: Corynebacterium glutamicum MTCC 2679
[4] = system: Enterococcus faecalis MTCC 439
[5] = system: Alcaligenes faecalis MTCC 1937
[6] = system: Klebsiella aerogenes MTCC 111
[7] = system: Haemophilus influenzae MTCC 621
[8] = system: Salmonella enterica MTCC 9844
[9] = system: Pseudomonas aeruginosa MTCC 3542
[10] = system: Alkalihalobacillus alcalophilus MTCC 860
[11] = system: Vibrio cholerae MTCC 3904
[12] = system: Klebsiella oxytoca MTCC 2275
[13] = system: Proteus mirabilis MTCC 3158
[14] = system: Klebsiella pneumoniae MTCC 7407
[15] = system: Pluralibacter gergoviae MTCC 3826
[16] = system: Stenotrophomonas maltophilia MTCC 1890
[17] = system: Shigella flexneri MTCC 1457
[18] = system: Acinetobacter baumannii MTCC 9829
[19] = system: Proteus vulgaris MTCC 1771
[20] = system: Staphylococcus haemolyticus MTCC 3383
[21] = system: Salmonella enterica subsp. enterica serovar Typhimurium ATCC 14028
[22] = system: Citrobacter freundii MTCC 1658
[23] = system: Bordetella bronchiseptica MTCC 6837
[24] = system: Escherichia coli K12 MG1655
[25] = system: Shigella boydii MTCC 11947
[26] = system: Pseudomonas aeruginosa Ps4
[27] = system: Candida albicans ATCC 90028
[28] = system: Candida albicans SC5314
[29] = system: Candida krusei ATCC 6258
[30] = system: Candida parapsilosis ATCC 22019

SMILES | MIC [1] | MIC [2] | MIC [3] | MIC [4] | MIC [5] | MIC [6] | MIC [7] | MIC [8] | MIC [9] | MIC [10] | MIC [11] | MIC [12] | MIC [13] | MIC [14] | MIC [15] | MIC [16] | MIC [17] | MIC [18] | MIC [19] | MIC [20] | also measured
CSCC[C@H](NC(=O)[C@H](CCCCN)NC(=O)[C@H](CCCCN)NC(=O)[C@H](CC(C)C)NC(=O)[C@H](C)N)C(=O)N[C@@H](CC(C)C)C(=O)N[C@@H](CCCN=C(N)N)C(=O)N[C@@H](CC(C)C)C(=O)N[C@@H](C)C(=O)N[C@@H](CCCCN)C(=O)N[C@@H](CCCN=C(N)N)C(=O)N[C@@H](CC(C)C)C(=O)N[C@@H](CO)C(=O)O [ALKKMLRLAKRLS] | ≥ 41.9 µM | ≥ 83.8 µM | 10.5 µM (≈ 16 µg/mL) | ≥ 83.8 µM | ≥ 83.8 µM | ≥ 83.8 µM | ≥ 41.9 µM | 20.9 µM (≈ 32 µg/mL) | ≥ 83.8 µM | ≥ 83.8 µM | ≥ 83.8 µM | ≥ 83.8 µM | ≥ 83.8 µM | ≥ 83.8 µM | ≥ 83.8 µM | ≥ 83.8 µM | 20.9 µM (≈ 32 µg/mL) | ≥ 83.8 µM | ≥ 83.8 µM | ≥ 83.8 µM | MIC [21]: > 83.8 µM; MIC [22]: ≥ 83.8 µM; MIC [23]: 5.24 µM (≈ 8 µg/mL); MIC [24]: ≥ 41.9 µM; MIC [25]: ≥ 41.9 µM
CC[C@H](C)[C@H](NC(=O)[C@@H](N)CCC(=O)O)C(=O)N[C@@H](CC(C)C)C(=O)N[C@@H](CO)C(=O)N[C@@H](CCCCN)C(=O)N[C@@H](C)C(=O)N[C@@H](CC(C)C)C(=O)N[C@@H](CO)C(=O)N[C@@H](C)C(=O)N[C@@H](CC(C)C)C(=O)N[C@@H](CO)C(=O)N1CCC[C@H]1C(=O)N[C@@H](CC(C)C)C(=O)N[C@@H](C)C(=O)N[C@@H](CC(N)=O)C(=O)O [EILSKALSALSPLAN] | ≥ 83.8 µM | ≥ 83.8 µM | ≥ 83.8 µM | ≥ 83.8 µM | ≥ 83.8 µM | ≥ 83.8 µM | ≥ 83.8 µM | ≥ 83.8 µM | ≥ 83.8 µM | ≥ 83.8 µM | ≥ 83.8 µM | ≥ 83.8 µM | ≥ 83.8 µM | ≥ 83.8 µM | ≥ 83.8 µM | ≥ 83.8 µM | ≥ 83.8 µM | ≥ 83.8 µM | ≥ 83.8 µM | ≥ 83.8 µM | MIC [21]: > 83.8 µM; MIC [22]: ≥ 83.8 µM; MIC [23]: ≥ 83.8 µM; MIC [24]: ≥ 83.8 µM; MIC [25]: ≥ 83.8 µM
CC[C@H](C)[C@H](NC(=O)[C@H](CCCCN)NC(=O)[C@H](CCCN=C(N)N)NC(=O)[C@H](CCC(N)=O)NC(=O)[C@H](Cc1c[nH]c2ccccc12)NC(=O)[C@@H](N)Cc1ccccc1)C(=O)N[C@@H](CCCN=C(N)N)C(=O)N[C@@H](CCCCN)C(=O)N[C@H](C(=O)N[C@@H](CCCCN)C(=O)N[C@@H](CCCCN)C(N)=O)C(C)C [FWQRKIRKVKK] |  |  |  |  |  |  |  |  |  |  |  |  |  |  |  |  |  |  |  |  | MIC [26]: ≥ 165 µM
CC[C@H](C)[C@H](NC(=O)[C@@H]1CCCN1C(=O)[C@H](CCCN=C(N)N)NC(=O)[C@H](CCC(N)=O)NC(=O)[C@H](Cc1c[nH]c2ccccc12)NC(=O)[C@@H](N)Cc1ccccc1)C(=O)N[C@@H](CCCN=C(N)N)C(=O)N[C@@H](CCCCN)C(=O)N[C@H](C(=O)N[C@@H](CCCN=C(N)N)C(N)=O)C(C)C [FWQRPIRKVR] |  |  |  |  |  |  |  |  |  |  |  |  |  |  |  |  |  |  |  |  | MIC [26]: ≥ 180 µM
CC[C@H](C)[C@H](NC(=O)CN)C(=O)N[C@@H](Cc1c[nH]c2ccccc12)C(=O)N[C@@H](CCCCN)C(=O)N[C@@H](CCCCN)C(=O)N[C@@H](Cc1c[nH]c2ccccc12)C(=O)N[C@H](C(=O)N[C@@H](CCCCN)C(=O)N[C@@H](CCCCN)C(=O)N[C@H](C(=O)N[C@H](C(=O)N[C@@H](CC(N)=O)C(=O)N[C@H](C(=O)N[C@@H](CC(C)C)C(=O)N[C@@H](CCCCN)C(=O)N[C@@H](CC(N)=O)C(=O)N[C@@H](CC(C)C)C(=O)N[C@@H](Cc1ccccc1)C(N)=O)C(C)C)C(C)C)C(C)C)[C@@H](C)CC [GIWKKWIKKVVNVLKNLF] |  |  |  |  |  |  |  |  |  |  |  |  |  |  |  |  |  |  |  |  | MIC [27]: 14.5 µM (≈ 32 µg/mL); MIC [28]: 7.23 µM (≈ 16 µg/mL); MIC [29]: 14.5 µM (≈ 32 µg/mL); MIC [30]: 7.23 µM (≈ 16 µg/mL)
CC[C@H](C)[C@H](NC(=O)CN)C(=O)N[C@@H](Cc1c[nH]c2ccccc12)C(=O)N[C@@H](CCCCN)C(=O)N[C@@H](CCCCN)C(=O)N[C@@H](Cc1c[nH]c2ccccc12)C(=O)N[C@H](C(=O)N[C@@H](CCCCN)C(=O)N[C@@H](CCCCN)C(=O)N[C@@H](Cc1c[nH]c2ccccc12)C(=O)N[C@@H](CC(C)C)C(=O)N[C@@H](CCCCN)C(=O)N[C@@H](CCCCN)C(=O)N[C@@H](CC(C)C)C(=O)N[C@@H](CC(C)C)C(=O)N[C@@H](CCCCN)C(=O)N[C@@H](CCCCN)C(=O)N[C@@H](CC(C)C)C(=O)N[C@@H](Cc1c[nH]c2ccccc12)C(=O)N[C@@H](CCCCN)C(=O)N[C@@H](CCCCN)C(=O)NCC(=O)O)[C@@H](C)CC [GIWKKWIKKWLKKLLKKLWKKG] |  |  |  |  |  |  |  |  |  |  |  |  |  |  |  |  |  |  |  |  | MIC [27]: 22.6 µM (≈ 64 µg/mL); MIC [28]: 11.3 µM (≈ 32 µg/mL); MIC [29]: 22.6 µM (≈ 64 µg/mL); MIC [30]: 22.6 µM (≈ 64 µg/mL)
CC[C@H](C)[C@H](NC(=O)CNC(=O)[C@H](CCCCN)NC(=O)[C@H](C)NC(=O)[C@H](C)NC(=O)[C@H](CCCCN)NC(=O)[C@H](Cc1cnc[nH]1)NC(=O)[C@@H](NC(=O)[C@H](C)NC(=O)[C@H](CCCCN)NC(=O)[C@H](Cc1c[nH]c2ccccc12)NC(=O)CN)[C@@H](C)CC)C(=O)N[C@@H](Cc1cnc[nH]1)C(=O)N[C@H](C(=O)N[C@@H](Cc1ccc(O)cc1)C(=O)N[C@H](C(=O)N[C@@H](CC(N)=O)C(=O)O)C(C)C)[C@@H](C)O [GWKAIHKAAKGIHTYVN] | ≥ 67.6 µM | ≥ 67.6 µM | ≥ 33.8 µM | ≥ 67.6 µM | ≥ 67.6 µM | ≥ 67.6 µM | ≥ 33.8 µM | ≥ 67.6 µM | ≥ 67.6 µM | ≥ 67.6 µM | ≥ 67.6 µM | ≥ 67.6 µM | ≥ 67.6 µM | ≥ 67.6 µM | ≥ 67.6 µM | ≥ 67.6 µM | ≥ 67.6 µM | ≥ 67.6 µM | ≥ 67.6 µM | ≥ 67.6 µM | MIC [21]: > 67.6 µM; MIC [22]: ≥ 67.6 µM; MIC [23]: ≥ 67.6 µM; MIC [24]: ≥ 67.6 µM; MIC [25]: ≥ 67.6 µM
CC[C@H](C)[C@H](NC(=O)[C@@H](NC(=O)[C@H](C)NC(=O)[C@H](Cc1cnc[nH]1)NC(=O)[C@H](CC(C)C)NC(=O)[C@H](CCCN=C(N)N)NC(=O)[C@H](C)NC(=O)[C@H](Cc1ccc(O)cc1)NC(=O)[C@@H](NC(=O)[C@@H](N)CCCCN)C(C)C)C(C)C)C(=O)N[C@@H](CCCCN)C(=O)N[C@@H](CCCN=C(N)N)C(=O)N[C@@H](CC(C)C)C(=O)N[C@@H](Cc1cnc[nH]1)C(=O)N[C@@H](CCCN=C(N)N)C(=O)N[C@@H](CCCN=C(N)N)C(=O)N[C@@H](CC(C)C)C(=O)N[C@@H](Cc1cnc[nH]1)C(=O)O [KVYARLHAVIKRLHRRLH] | 14.1 µM (≈ 32 µg/mL) | ≥ 56.5 µM | 0.882 µM (≈ 2 µg/mL) | ≥ 56.5 µM | ≥ 56.5 µM | ≥ 56.5 µM | 1.76 µM (≈ 4 µg/mL) | 14.1 µM (≈ 32 µg/mL) | ≥ 56.5 µM | 14.1 µM (≈ 32 µg/mL) | ≥ 56.5 µM | 3.53 µM (≈ 8 µg/mL) | ≥ 56.5 µM | ≥ 56.5 µM | ≥ 56.5 µM | ≥ 56.5 µM | 1.76 µM (≈ 4 µg/mL) | 14.1 µM (≈ 32 µg/mL) | ≥ 56.5 µM | 1.76 µM (≈ 4 µg/mL) | MIC [21]: 14.1 µM (≈ 32 µg/mL); MIC [22]: 14.1 µM (≈ 32 µg/mL); MIC [23]: 1.76 µM (≈ 4 µg/mL); MIC [24]: 7.06 µM (≈ 16 µg/mL); MIC [25]: 3.53 µM (≈ 8 µg/mL)

Reference: DBAASP
